Measurements reported in ChEMBL document CHEMBL1128133, “Synthesis and binding affinity of 2,3,3a,4,9,9a-hexahydro-9,4-(iminomethano)-1H-benz[f]indenes. Ligands for the PCP site of the NMDA receptor” (Bioorg Med Chem Lett, 1995).

test: Binding affinity against PCP site of the NMDA Receptor using [3H]TCP radioligand

Compound | Ki
c1ccc2c(c1)C1CNC2C2CCCC12 (stereo not given) | 52 nM
CN1CC2c3ccccc3C1C1CCCC21 (stereo not given) | 1140 nM
CN1CC2c3c(N)cccc3C1C1C=CCC21 (stereo not given) | 701 nM
CN1CC2c3c(N)cccc3C1C1CCCC21 (stereo not given) | 226 nM
C[C@]12N[C@H](Cc3ccccc31)c1ccccc12 [DIZOCILPINE] | 2.2 nM
C[C@@H]1NC2c3cccc(N)c3C1C1CCCC21 (stereo in doubt; 13) | 1200 nM
C[C@H]1NC2c3cccc(N)c3C1C1CCCC21 (stereo not given in full) | 8 nM
C[C@@H]1NC2c3cccc(N)c3C1C1CCCC21 (stereo in doubt; 12a) | 89 nM
Nc1cccc2c1C1CNC2C2CCCC12 (stereo not given) | 14 nM
Oc1cccc(C2(N3CCCCC3)CCCCC2)c1 | 38 nM
